Where two headings read alike, the source gives them in different places. Values belong to the compound of their own block, whether it stands above or below them.
Tests used:
[1] = system: normal human epidermal fibroblasts; assay: cell uptake of rhodamine B from carriers without stimulus-responsive polymers; type: cell-based; conditions: EPC set at 100%; carrier without stimulus-responsive polymers; vitamin derivative 200 μM; 37° C. 1 hour
Description: Create a Delivery carrier into cell in a comparison experiment To investigate the effects of vitamin derivatives with different ATG-CTS activities on cell uptake, the following experiments were performed on delivery carrier into the cell without stimulus-responsive polymers. Six g of glycerin, 1 g of sodium cocoyl glutamate, and 1 g each of three vitamin derivatives (PA, APPS, and EPC) with different ATG-CTS activities were mixed with an electric hand mixer, and 0.1 g of rhodamine B, a fluorescent dye, was added to 20 g of jojoba oil and stirred for 20 minutes. To this, PBS was added to 100 g and stirred for 10 minutes with an electric hand mixer to prevent foaming. 3 types of cell carriers were obtained by completely dispersing them. A Delivery carrier into cell of vitamin derivative-free was also created using the same method as an additive-free control.
Normal human epidermal fibroblasts were incubated in DMEM (low glucose) containing 5% FBS at a density of 5×10^5 cell/well at 37° C. for 24 hours in 6-well plates, and then the medium containing the three delivery carrier into the cell of the invention (final concentration of PA, APPS, and EPC was added to 200 μM each) was replaced with the medium prepared as described above and incubated at 37° C. for 1 hour. Then, the cell were washed five times with PBS and immobilized with 4% paraformaldehyde phosphate buffer solution for 20 min, washed twice with PBS again, and the relative concentration of the fluorescent material taken up into the cell was determined by measuring the fluorescence intensity at the excitation wavelength of 555 (nm) and the fluorescence wavelength of 580 (nm) with a fluorescent microplate reader. cell of delivery carrier into the cell without vitamin derivatives were also cultured in the same way as additive-free controls and the fluorescence intensity was measured.

[2] = lower critical dissolution temperature in water; type: physicochemical
Description: The lower critical dissolution temperature of the temperature-stimuli-responsive polymer-containing molecules in the present invention in water should be between a temperature close to body temperature and 70° C., which is the maximum temperature for carrier transportation in summer during product distribution (e.g., 35.0 to 70.0° C.). On the other hand, for the temperature-responsive polymer of the present invention, even if the lower critical dissolution temperature is near body temperature, it is easier to suppress cell death after delivery into cells if the temperature is as high as possible. […] In the present invention, the lower critical dissolution temperature of the temperature-responsive polymer in water is measured by differential scanning calorimetry (DSC).
For this reason, the lower critical dissolution temperature of the conventional temperature-stimulus-responsive-polymer containing molecules is preferred to be 37-42° C., which is close to the body temperature. […] In the present invention, the lower critical dissolution temperature of the temperature-stimulus-responsive polymer in water is measured by differential scanning calorimetry (DSC).

[3] = concentration in the formulation increased to 1%
HMV-II cell [4] = assay: Melanin production inhibition test; type: cell-based; conditions: 200 μM, no carrier
Description: Pre-treatment: The following melanin production inhibition tests were performed using A-2, B-2, C-2, and D-2 pH-responsive delivery carrier into the cell (A-3, B-3, C-3, and D-3): HMV-II cell were seeded in 24 well dishes at a concentration of 1×10^5 cell/mL, incubated for 24 hours, and then added 200 μM of IBMX and A-3, B-3, C-3, and D-3 pH-responsive delivery carrier into the cell (A-3, B-3, C-3, and D-3) at an APS concentration of 100 μM. 2 hours later, the cell were washed with PBS, 200 μM of IBMX was added again, and incubated for 70 hours. The cell were then solubilized with 200 μL of NaOH at 1 mol/L, and melanin was extracted and quantified by measuring the absorbance at 405 nm. The melanin production was increased about 3-fold by the addition of IBMX (no carrier for pH-responsive cell delivery). When the amount of melanin produced at this time was assumed to be 100%, the amount of melanin produced by A-3 addition of the invention was 48%, B-3 was 78%, C-3 was 85%, and D-3 was 90%.

HMV-II cell [5] = assay: Cellular damage assessment (Cell Counting Kit-8); type: cell-based; conditions: Cell Counting Kit-8, absorbance at 450 nm
Description: HMV-II cell were seeded at a concentration of 1×10^5 cell/mL in 500 μL/well on a 6-well plate. After incubation for 24 hours, 200 μM of IBM X, a melanin-producing stimulant, was added. APS was added to 100 μM for each pH-responsive delivery carrier into cell of A-3, B-3, C-3, and D-3. 2 hours later, the cell were washed with PBS, 200 μM of IVMX was added again, and incubated for 70 hours. To this, 10 μL of Cell Counting Kit-8 was added, and the cytotoxicity of sample addition was compared by measuring absorbance at 450 nm after 1 h of incubation.

[6] = system: normal human epidermal fibroblasts; assay: cell uptake of Rhodamine B from temperature-responsive liposome carriers with different vitamin derivatives; type: cell-based; conditions: EPC-added groups set to 100%, liposome carrier with DOPEMP (NIPAA/DMAPAA 5%) Cop, rhodamine 1 μM, 35° C. 1 hour, 40° C. 20 min
Description: The total amount of the next lipid was 20 mg, the molar ratio of (lipid 1,2-diore oil-3-trimethylammonium propane):(total weight of lamella-forming surfactant diore oil phosphatidylethanolamine and DOPEMP (NIPAA/DMAPAA 5%) Cop) was 3:7. Each was dissolved in chloroform. Further, the fluorescent dye Rhodamine B (1 mg) was added and dissolved. The lower limit critical dissolution temperature of DOPEMP (NIPAA/DMAPAA 5%) Cop used in this experiment in water was 40° C. The molar ratio of (dioleoylphosphatidylethanolamine: DOPEMP (NIPAA/DMAPAA) Cop.) added by total weight was 6.5:0.5.
The solution was transferred to an eggplant flask and the solvent was blown off by an evaporator to prepare a lipid film. EPC, APPS, APS and AA (ascorbic acid), which are […] of Vitamin derivatives having different ATG activity and CTS activity (hereinafter abbreviated as ATG-CTS activity), were prepared. To this lipid film, EPC, APPS, APS and AA (5 mg each) dissolved in PBS (1 ml) were added. The lipid film was hydrated and then dispersed by vortexing. After that, sonication was performed for 30 minutes in an ultrasonic bath to reduce the size of the liposome, and then the liposome was passed through a 200 nm filter using an extruder to adjust the size of the liposome. The average particle size of the examples and comparative examples was 111 nm±10 nm. Then, the liposomes were separated and purified by gel filtration. By the above method, a Delivery carrier into cell of the present invention containing an ATG-CTS activator, a temperature-responsive polymer and a hydrocarbon was prepared.
Next, normal human epidermal fibroblasts were cultured in DMEM (low glucose) containing 5% FBS for 24 hours at 37° C. at a density of 5×10^5 cell/well in 6-well plates, and then the medium containing four delivery carrier into the cell (added to achieve a final rhodamine concentration of 1 μM), including the embodiments and comparative examples prepared as described above, was exchanged for each medium and cultured at 35° C. for 1 hour. After that, it was incubated at 40° C. for 20 min, and then at 35° C. for 1 h. It was then washed five times with PBS and immobilized with 4% paraformaldehyde phosphate buffer solution for 20 min, washed twice with PBS again, and the relative concentration of the fluorescent material taken up into the cell was determined by measuring the fluorescence intensity with a fluorescent microplate reader. cell of delivery carrier into the cell without vitamin derivatives were also cultured in the same way as additive-free controls and the fluorescence intensity was measured.

[7] = type: physicochemical; conditions: for Remaining rate: buffer; for Evaluation results: 0.5% by weight in purified water, defoaming time
Description: The ascorbic acid derivatives of APS, APPS, EPC, and AA were dissolved in purified water at a concentration of 0.5% by weight, and the time to defoam the bubbles was measured with a sponge under the same conditions. The results are shown in Table 14, where the defoaming time of the APPS with the longest defoaming time was set to 100% and the defoaming time of each was calculated as a percentage, with 90% or more being considered O (best), 80% or more to 90% or less being considered B (good), and 80% or less being considered X (poor). Description of abbreviations: ascorbic acid-2-phosphateNa:APS, ascorbic acid-2-phosphate-6-palmitate3Na:APPS, ascorbic acid-2-tocopheryl potassium:EPC, ascorbic acid:AA.

[8] = type: physicochemical; conditions: for Remaining rate: buffer; for Evaluation results: 0.02 mol/L in purified water, 50° C., one month
Description: APS, APPS, and EPC so that the concentration of each ascorbate derivative is 0.02 mol/L. Dissolve them in purified water and store them at 50° C. for one month to determine their potency in a high performance liquid The starting titers of each substance were measured by chromatography, and the results after one month were used as the starting titer of 100%. If more than 95% of the result was remaining in the material, it is ∘, and if less than 95% or more than 80% of the result was less than 95%, it is […]. […] Sodium ascorbic acid-2-phosphate: APS; Sodium ascorbic acid-2-phosphate-6-palmitate 3: APPS; Potassium tocopheryl ascorbic acid-2-phosphate: EPC; ascorbic acid: AA.

Compound: CCCCCCCCCCCCCCCC(=O)OC[C@H](O)[C@H]1OC(=O)C(O)=C1O [PA, ascorbyl palmitate]
- fluorescence intensity (fluorescent material taken up into the cell) [1]: 58%

Compound: Dioleoylephosphatidylethanolamine mercaptopropionyl (isopropylacrylamide/dimethylaminopropylacrylamide 5%) copolymer [DOPEMP (NIPAA/DMAPAA 5%) Cop]
- lower critical dissolution temperature in water [2]: 40 °C

Compound: CCCCCCCC(=O)OC1=C(OCC(O)CO)C(C(O)CO)OC1=O (stereo not drawn) [OGVC, 3-glyceryl-2-Caprylyl ascorbate]
- skin irritation [3]: no skin irritation was observed

Compound: CC(C)Cn1c(=O)n(C)c(=O)c2[nH]cnc21 [IBMX]
- increase of melanin production (HMV-II cell [4]): about 3 fold
- cytotoxicity (HMV-II cell [5]): cytotoxicity was confirmed

- Remaining rate [7]: 1%
- Remaining rate ([8]; 1 month, 0.02 mol/L): 56%
Compound: O=C1O[C@H]([C@@H](O)CO)C(O)=C1O [AA, ascorbic acid, reference compound]
- fluorescence intensity (fluorescent material taken up into the cell) [6]: 52%

- Evaluation results [7]: Δ
- Remaining rate [7]: 85%
- Evaluation results [8]: ○
- Remaining rate [8]: 96%
Compound: Cc1c(C)c2c(c(C)c1OP(=O)([O-])OC1=C(O)[C@@H]([C@@H](O)CO)OC1=O)CC[C@@](C)(CCC[C@H](C)CCC[C@H](C)CCCC(C)C)O2.[K+] [EPC, Potassium tocopheryl ascorbic acid-2-phosphate]
- fluorescence intensity (fluorescent material taken up into the cell) [6]: 100%
- fluorescence intensity (fluorescent material taken up into the cell) [1]: 100%

- Remaining rate [7]: 3%
- Evaluation results [8]: Δ
- Remaining rate ([8]; 1 month, 0.02 mol/L): 91%
Compound: O=C1O[C@H]([C@@H](O)CO)C(O)=C1OP(=O)([O-])[O-].[Na+].[Na+] [APS, Sodium ascorbic acid-2-phosphate]
- fluorescence intensity (fluorescent material taken up into the cell) [6]: 49%

- Evaluation results [7]: ○
- Remaining rate [7]: 100%
- Remaining rate [8]: 78%
Compound: CCCCCCCCCCCCCCCC(=O)OC[C@H](O)C1OC(=O)C(OP(=O)([O-])[O-])=C1[O-].[Na+].[Na+].[Na+] (stereo partly drawn) [APPS, Sodium ascorbic acid-2-phosphate-6-palmitate 3]
- fluorescence intensity (fluorescent material taken up into the cell) [6]: 78%
- fluorescence intensity (fluorescent material taken up into the cell) [1]: 76%

Compound: CCCCCCCC(=O)OC1=C(OCC(O)CO)C(=O)OC1C(O)CO (stereo not drawn) [GOVC, 2-glyceryl-3-Caprylyl ascorbate]
- skin irritation [3]: no skin irritation was observed

Source: patent US12642769B2, “Delivery carrier into cell” (Kabusikikaisya ITO, priority 2019, dated 2026)
